# Measured values taken from ChEMBL document CHEMBL1201862, “PubChem BioAssay data set” (2004).
#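 Test compounds were applied to cells in 96-well plates for 48 hours at 5 doses. The concentration for 50% growth inhibition is given as GI50.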 The source made the active and inactive calls. Cut-off read from the data, not from the text of the source: active = GI50 up to about 1.1 µM and inactive = higher.
# Assays:
# Experiment in all cases: NCI-60 cell line screen, 48 h
# HL-60 = test system: HL-60
# NCI/ADR-RES = test system: NCI/ADR-RES
# MCF7 = test system: MCF7
# T47D = test system: T47D
# UACC-257 = test system: UACC-257
# KM12 = test system: KM12
# HCT-15 = test system: HCT-15
# K562 = test system: K562
# ACHN = test system: ACHN
# CAKI-1 = test system: CAKI-1
# SR = test system: SR
# HT-29 = test system: HT-29
# RXF 393 = test system: RXF 393
# M14 = test system: M14
# A498 = test system: A498
# SNB-19 = test system: SNB-19
# NCI-H460 = test system: NCI-H460
# HCC 2998 = test system: HCC 2998
# COLO 205 = test system: COLO 205
# PC-3 = test system: PC-3
# RPMI-8226 = test system: RPMI-8226
# MDA-MB-231 = test system: MDA-MB-231
# OVCAR-3 = test system: OVCAR-3
# OVCAR-4 = test system: OVCAR-4
# CCRF-CEM = test system: CCRF-CEM
# MDA-N = test system: MDA-N
# LOX IMVI = test system: LOX IMVI
# IGROV-1 = test system: IGROV-1
# MDA-MB-435 = test system: MDA-MB-435
# OVCAR-8 = test system: OVCAR-8
# UO-31 = test system: UO-31
# SW-620 = test system: SW-620
# NCI-H226 = test system: NCI-H226
# SF-268 = test system: SF-268
# HOP-62 = test system: HOP-62
# SF-295 = test system: SF-295
# Hs-578T = test system: Hs-578T
# SNB-75 = test system: SNB-75
# DU-145 = test system: DU-145
# NCI-H23 = test system: NCI-H23
# SF-539 = test system: SF-539
# SK-MEL-5 = test system: SK-MEL-5
# MOLT-4 = test system: MOLT-4
# EKVX = test system: EKVX
# UACC-62 = test system: UACC-62
# OVCAR-5 = test system: OVCAR-5
# SK-OV-3 = test system: SK-OV-3
# SK-MEL-2 = test system: SK-MEL-2
# HOP-92 = test system: HOP-92
# TK-10 = test system: TK-10
# U-251 = test system: U-251
# A549 = test system: A549
# SK-MEL-28 = test system: SK-MEL-28
# HCT-116 = test system: HCT-116
# Malme-3M = test system: Malme-3M
# 786-0 = test system: 786-0
# NCI-H522 = test system: NCI-H522
# SN12C = test system: SN12C
structure (smiles),measurement,setting,value
Cc1ccc(/N=N/C(=N\NC(=O)c2ccc(C)cc2)c2ccc(N(CCC#N)CCC#N)cc2C)cc1,GI50,HL-60,17.4 µM (inactive)
same,GI50,NCI/ADR-RES,38.9 µM (inactive)
same,GI50,MCF7,31 µM (inactive)
same,GI50,T47D,49.7 µM (inactive)
same,GI50,UACC-257,27.9 µM (inactive)
same,GI50,KM12,12.2 µM (inactive)
same,GI50,HCT-15,33.5 µM
same,GI50,K562,35.9 µM (inactive)
same,GI50,ACHN,46.7 µM (inactive)
same,GI50,CAKI-1,67 µM (inactive)
same,GI50,SR,18.7 µM (inactive)
same,GI50,HT-29,19.4 µM (inactive)
same,GI50,RXF 393,44.8 µM (inactive)
same,GI50,M14,30 µM (inactive)
same,GI50,A498,> 100 µM (inactive)
same,GI50,SNB-19,> 100 µM (inactive)
same,GI50,NCI-H460,23.8 µM (inactive)
same,GI50,HCC 2998,50.2 µM (inactive)
same,GI50,COLO 205,48.2 µM (inactive)
same,GI50,PC-3,24 µM (inactive)
same,GI50,RPMI-8226,13 µM (inactive)
same,GI50,MDA-MB-231,57.9 µM (inactive)
same,GI50,OVCAR-3,26.2 µM (inactive)
same,GI50,OVCAR-4,47.1 µM (inactive)
same,GI50,CCRF-CEM,49.4 µM (inactive)
same,GI50,MDA-N,29.7 µM (inactive)
same,GI50,LOX IMVI,35.7 µM (inactive)
same,GI50,IGROV-1,13.4 µM (inactive)
same,GI50,MDA-MB-435,21 µM (inactive)
same,GI50,OVCAR-8,17.7 µM (inactive)
same,GI50,UO-31,> 100 µM (inactive)
same,GI50,SW-620,39 µM (inactive)
same,GI50,NCI-H226,20.7 µM (inactive)
same,GI50,SF-268,22.5 µM (inactive)
same,GI50,HOP-62,34.4 µM (inactive)
same,GI50,SF-295,38.4 µM (inactive)
same,GI50,Hs-578T,16.4 µM (inactive)
same,GI50,SNB-75,35.5 µM (inactive)
same,GI50,DU-145,57.8 µM (inactive)
same,GI50,NCI-H23,35.3 µM (inactive)
same,GI50,SF-539,13.7 µM (inactive)
same,GI50,SK-MEL-5,4.69 µM (inactive)
same,GI50,MOLT-4,39.4 µM (inactive)
same,GI50,EKVX,43 µM (inactive)
same,GI50,UACC-62,22.4 µM (inactive)
same,GI50,OVCAR-5,50.5 µM (inactive)
same,GI50,SK-OV-3,65.6 µM (inactive)
same,GI50,SK-MEL-2,20.5 µM (inactive)
same,GI50,HOP-92,51.3 µM (inactive)
same,GI50,TK-10,45.5 µM (inactive)
same,GI50,U-251,14.8 µM (inactive)
same,GI50,A549,34.5 µM (inactive)
same,GI50,SK-MEL-28,10.3 µM (inactive)
O=C1c2cc3c(cc2CC12Cc1ccc4c(c1C2=O)CCCC4)CCCC3 (centres undefined),GI50,HL-60,> 100 µM (inactive)
same,GI50,NCI/ADR-RES,44.7 µM (inactive)
same,GI50,MCF7,> 100 µM (inactive)
same,GI50,T47D,> 100 µM (inactive)
same,GI50,UACC-257,> 100 µM (inactive)
same,GI50,HCT-116,27.7 µM (inactive)
same,GI50,Malme-3M,21.5 µM (inactive)
same,GI50,HCT-15,> 100 µM
same,GI50,K562,> 100 µM (inactive)
same,GI50,ACHN,48.1 µM (inactive)
same,GI50,CAKI-1,> 100 µM (inactive)
same,GI50,SR,> 100 µM (inactive)
same,GI50,HT-29,> 100 µM (inactive)
same,GI50,RXF 393,42 µM (inactive)
same,GI50,M14,> 100 µM (inactive)
same,GI50,786-0,20.1 µM (inactive)
same,GI50,A498,21.4 µM (inactive)
same,GI50,SNB-19,40.8 µM (inactive)
same,GI50,NCI-H460,97.9 µM (inactive)
same,GI50,HCC 2998,> 100 µM (inactive)
same,GI50,PC-3,> 100 µM (inactive)
same,GI50,RPMI-8226,> 100 µM (inactive)
same,GI50,MDA-MB-231,48.3 µM (inactive)
same,GI50,OVCAR-3,21.1 µM (inactive)
same,GI50,OVCAR-4,25.9 µM (inactive)
same,GI50,CCRF-CEM,> 100 µM (inactive)
same,GI50,MDA-N,> 100 µM (inactive)
same,GI50,LOX IMVI,> 100 µM (inactive)
same,GI50,IGROV-1,80.7 µM (inactive)
same,GI50,MDA-MB-435,> 100 µM (inactive)
same,GI50,OVCAR-8,67 µM (inactive)
same,GI50,UO-31,> 100 µM (inactive)
same,GI50,SW-620,> 100 µM (inactive)
same,GI50,SF-268,50.2 µM (inactive)
same,GI50,HOP-62,50.6 µM (inactive)
same,GI50,SF-295,92.5 µM (inactive)
same,GI50,Hs-578T,61.7 µM (inactive)
same,GI50,SNB-75,69.8 µM (inactive)
same,GI50,DU-145,> 100 µM (inactive)
same,GI50,NCI-H23,79.1 µM (inactive)
same,GI50,SF-539,36.1 µM (inactive)
same,GI50,SK-MEL-5,> 100 µM (inactive)
same,GI50,MOLT-4,> 100 µM (inactive)
same,GI50,NCI-H522,85.7 µM (inactive)
same,GI50,EKVX,> 100 µM (inactive)
same,GI50,OVCAR-5,> 100 µM (inactive)
same,GI50,SK-OV-3,32.8 µM (inactive)
same,GI50,SK-MEL-2,45.6 µM (inactive)
same,GI50,HOP-92,21.4 µM (inactive)
same,GI50,TK-10,> 100 µM (inactive)
same,GI50,U-251,24 µM (inactive)
same,GI50,A549,82.6 µM (inactive)
same,GI50,SK-MEL-28,> 100 µM (inactive)
Nc1cnc(Nc2cccc3ccccc23)o1,GI50,HL-60,> 10 µM (inactive)
same,GI50,NCI/ADR-RES,> 10 µM (inactive)
same,GI50,MCF7,> 10 µM (inactive)
same,GI50,T47D,> 10 µM (inactive)
same,GI50,UACC-257,> 10 µM (inactive)
same,GI50,HCT-116,> 10 µM (inactive)
same,GI50,Malme-3M,> 10 µM (inactive)
same,GI50,KM12,> 10 µM (inactive)
same,GI50,HCT-15,> 10 µM
same,GI50,K562,> 10 µM (inactive)
same,GI50,ACHN,> 10 µM (inactive)
same,GI50,CAKI-1,> 10 µM (inactive)
same,GI50,HT-29,> 10 µM (inactive)
same,GI50,RXF 393,> 10 µM (inactive)
same,GI50,M14,> 10 µM (inactive)
same,GI50,786-0,> 10 µM (inactive)
same,GI50,A498,> 10 µM (inactive)
same,GI50,SNB-19,> 10 µM (inactive)
same,GI50,NCI-H460,> 10 µM (inactive)
same,GI50,HCC 2998,> 10 µM (inactive)
same,GI50,COLO 205,> 10 µM (inactive)
same,GI50,PC-3,> 10 µM (inactive)
same,GI50,MDA-MB-231,> 10 µM (inactive)
same,GI50,OVCAR-3,> 10 µM (inactive)
same,GI50,OVCAR-4,> 10 µM (inactive)
same,GI50,CCRF-CEM,> 10 µM (inactive)
same,GI50,MDA-N,> 10 µM (inactive)
same,GI50,LOX IMVI,> 10 µM (inactive)
same,GI50,IGROV-1,> 10 µM (inactive)
same,GI50,MDA-MB-435,> 10 µM (inactive)
same,GI50,OVCAR-8,> 10 µM (inactive)
same,GI50,UO-31,> 10 µM (inactive)
same,GI50,SW-620,> 10 µM (inactive)
same,GI50,NCI-H226,> 10 µM (inactive)
same,GI50,SF-268,> 10 µM (inactive)
same,GI50,HOP-62,> 10 µM (inactive)
same,GI50,SF-295,> 10 µM (inactive)
same,GI50,Hs-578T,> 10 µM (inactive)
same,GI50,SNB-75,> 10 µM (inactive)
same,GI50,SN12C,> 10 µM (inactive)
same,GI50,DU-145,> 10 µM (inactive)
same,GI50,NCI-H23,> 10 µM (inactive)
same,GI50,SF-539,> 10 µM (inactive)
same,GI50,SK-MEL-5,> 10 µM (inactive)
same,GI50,NCI-H522,> 10 µM (inactive)
same,GI50,EKVX,> 10 µM (inactive)
same,GI50,UACC-62,> 10 µM (inactive)
same,GI50,SK-OV-3,> 10 µM (inactive)
same,GI50,SK-MEL-2,> 10 µM (inactive)
same,GI50,TK-10,> 10 µM (inactive)
same,GI50,U-251,> 10 µM (inactive)
same,GI50,A549,> 10 µM (inactive)
same,GI50,SK-MEL-28,> 10 µM (inactive)
